Data on 1 molecule can be found in patent US10471076B2, “Compositions and methods to treat vision disorders” (YouHealth Biotech, Limited, priority 2014, dated 2019).

SMILES strings stand for the structures.

For test [1], the system named is cataract-causing mutant crystallin proteins. The experiment in a line: Intracellular aggregation of mutant crystallins in HLEB-3 cells. Type of test: cell-based, human. Conditions: then 12 h. On the procedure: FIG. 9A, FIG. 9B, and FIG. 9C show inhibition of crystallin mutant aggregation by wild-type LSS and lanosterol in HLEB-3 cells (FIG. 9A) or HeLa cells (FIG. 9B). Cells co-transfected with LSS and crystallin mutant constructs were cultured for 24 h before assaying for aggregates. The rescue experiments were performed by addition of 40 […] μM sterols (lanosterol or cholesterol) to the cell culture medium for 2 h, the sterol medium was then replaced with fresh culture medium and the cells were cultured for a further 12 h. The percentage of cells with crystallin aggregates were calculated from ten randomly selected viewing fields. The values of the wild-type LSS group, mutant group, or mutant plus lanosterol group were calculated. […] After transfection for 4 h and incubation in fresh culture medium for another 24 h, the cells were lysed and centrifuged to separate supernatant and insoluble fractions. LSS and crystallin fusion proteins were detected by antibodies against Flag and GFP, respectively. Red arrows indicate higher crystalline content in the soluble fraction versus in the insoluble fraction in cells containing the WT-LSS.
Cells were transfected with various crystallin constructs for 4 h and cultured for an additional 24 h in fresh culture medium. Then the cells were treated with 10, 20 and 40 μM lanosterol in 1% (HLEB-3 cells) or 2% DMSO (HeLa cells) for 2 h and cultured for another 12 h. Cells treated with 1% (HLEB-3 cells) or 2% DMSO (HeLa cells) were used as the controls. Formation of intracellular aggregates of various crystallin proteins was visualized by fluorescence of GFP (green) and the nuclei were stained with Hoechst 33342 (blue). Typical intracellular aggregates are indicated by arrows.
The impact of LSS and lanosterol on intracellular crystallin aggregation were evaluated in single-blinded observer studies. Experiments have been repeated at least three times. P values were calculated using Student's t-tests. Fluorescence microscopy. […]

Test [2] concerns the target T1, αA-crystallin (Y118D) aggregates (Homo sapiens, UniProt P02489, Y118D).
T1 construct: expressed in transfected cells; host or cells: human lens progenitor cells, G418-selected
T1 sequence (P02489 1-173 Y118D): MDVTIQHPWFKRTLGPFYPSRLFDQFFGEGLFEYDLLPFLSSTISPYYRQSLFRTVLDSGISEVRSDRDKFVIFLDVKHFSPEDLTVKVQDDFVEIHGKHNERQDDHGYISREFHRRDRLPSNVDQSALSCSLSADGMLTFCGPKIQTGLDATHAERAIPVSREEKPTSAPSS
In words: Serial live-cell imaging, single-particle tracking of aggregates. Type of test: cell-based. The following applies: human lens progenitor cells; 40 mM sterol in 1% DMSO for 4 h. As for the experimental part:
Live-cell imaging. Human lens progenitor cells were transfected with plasmids containing αA-crystallin (Y118D) mutant. After a 24 h transfection period, the cells with stable expression of αA-crystallin (Y118D) mutant were screen by incubation in culture medium containing 0.8 mg ml^−1 G418 for 7 days. Then the obtained cells were seeded onto glass bottom cell culture dishes (In Vitro Scientific) and treated with 1% DMSO, 40 mM cholesterol in 1% DMSO or 40 mM lanosterol in 1% DMSO for 4 h. Fresh culture medium was added, and the cells were analysed by serial live-cell imaging. Live-cell images were viewed with an Olympus IX81 microscope and captured with CellSens Dimension soft-ware (Olympus). Quantitative analysis of the size of aggregates was performed by measuring the fluorescence intensity of p62-positive aggregates using single-par-tide tracking in live-cell imaging. The live-cell imaging was conducted using three biological replicates with 1-8 repetitions each.

For the molecule `CC(C)=CCC[C@@H](C)[C@H]1CC[C@@]2(C)C3=C(CC[C@]12C)[C@@]1(C)CC[C@H](O)C(C)(C)[C@@H]1CC3` [lanosterol, 3β-Hydroxy-8,24-lanostadiene; 8,24-Lanostadien-3β-ol], in test [1] (HLEB-3 cells co-transfected with LSS and crystallin mutant, 40 μM sterols 2 h, lanosterol P<1×10^−4, cholesterol P>0.1), the “percentage of cells with crystallin aggregates versus control group (rescue)” value is “significantly lower”. In addition, the “intracellular aggregation caused by cataract-causing mutant crystallin proteins” value in test [1] (HLEB-3 cells, 10, 20 and 40 μM lanosterol in 1% DMSO for 2 h, concentration-dependent) is reported as “significantly reduced the intracellular aggregation”. Besides, in test [2], the “effect on αA-crystallin (Y118D) aggregates in live cells” value was “could effectively diminish crystallin aggregates”.
